According to patent US20230210853A1 (Halia Therapeutics, Inc., priority 2020, published 2023):
pIC50: −log10 of the molar value.

Legend:
[1] = molecular target: T1, full-length recombinant human NEK7 (Homo sapiens, UniProt Q8TDX7); test: NEK7 enzymatic assay ([33P]-ATP, casein substrate); format: biochemical; settings: Table 2e; recombinant human NEK7, casein substrate
T1 construct: full-length recombinant human NEK7; GST (N); purchased SignalChem N09-10G; host or cells: Sf9 insect cells (baculovirus)
Summary of the method: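 GST-tagged enzyme, baculovirus-expressed in Sf9 cells, was mixed with casein in 20 mM Hepes pH 7.5, 10 mM MgCl2, 1 mM EGTA, 0.02% Brij35, 2 mM DTT, 1% DMSO. Compounds (3-fold series, 10 μM–0.5 nM) were preincubated 20 min at RT, then [33P]-ATP was added for 2 h at RT. P81 filter-bound radioactivity was expressed as % of vehicle activity and fitted to IC50.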

IL-1β release = IL-1β release assay (PMA-differentiated THP-1 cells, LPS + nigericin, cleaved IL-1β by JESS); format: cell-based; settings: Homo sapiens; Table 2e; THP-1 cells, LPS + nigericin; read-out: IL-1β release IC50
Protocol: (§1) Approximately 1.5 million THP-1 cells were plated in each well of a 6-well TC plate and incubated with 40 nM PMA in RPMI (10% FBS, 1% Penstrep) for 24 hours. The media was then removed and cells were rested in RPMI (10% FBS, 1% Penstrep) for 24 hours after which time the media was removed and cells were pre-treated for 2 hours with various concentrations of compounds of interest (typically serial 3-fold dilution in RPMI +5% FBS, concentrations ranging from 1 μM to 0.5 nM) in RPMI (5% FBS). The media was again removed and cells were incubated with 250 ng/mL LPS and compounds of interest (concentrations as above) in RMPI (5% FBS) for 2 hours. The media was removed for a last time and cells were incubated with 20 μM nigericin and compounds of interest (concentrations as above) in Opti-MEM for 30 minutes. Cell media was then collected and the amount of cleaved IL-1β was determined using a JESS instrument (Protein Simple) and standard protocols. Cleaved 1-PD antibody was obtained from Cell Signaling (catalogue #83186S) and was used at 1:20 dilution in antibody diluent 2. Protein Simple 1× anti-Rabbit HRP secondary antibody was used along with Protein Simple luminol and peroxide for chemiluminescent detection. Primary antibody incubation time was increased from 30 minutes to 60 minutes.
as §1, with “RPMI+5%” for “RPMI +5%”, “Il-1β” for “1-PD”

T1 sequence (Q8TDX7 whole entry): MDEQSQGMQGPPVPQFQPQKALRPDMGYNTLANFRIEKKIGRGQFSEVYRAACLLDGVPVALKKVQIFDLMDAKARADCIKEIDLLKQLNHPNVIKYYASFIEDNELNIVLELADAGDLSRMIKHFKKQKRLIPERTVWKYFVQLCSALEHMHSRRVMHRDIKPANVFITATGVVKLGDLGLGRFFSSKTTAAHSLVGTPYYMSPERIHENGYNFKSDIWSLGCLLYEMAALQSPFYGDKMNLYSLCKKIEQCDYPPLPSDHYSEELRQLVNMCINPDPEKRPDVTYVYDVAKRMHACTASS

Row | pIC50 [1] | pIC50 (IL-1β release) | SMILES
1 | 6.30 to 6.52 | > 6.82 | Cc1[nH]c2nccc(Oc3ccc(NC(=O)Nc4ccc(CN5CCN(C)CC5)c(C(F)(F)F)c4)c(F)c3)c2c1Cl [Ie-27, 1-(4-((3-chloro-2-methyl-1H-pyrrolo[2,3-b]pyridin-4-yl)oxy)-2-fluorophenyl)-3-(4-((4-methylpiperazin-1-yl)methyl)-3-(trifluoromethyl)phenyl)urea]
2 | 6.52 to 6.82 | 6.52 to 6.82 | Cc1c[nH]c2nccc(Oc3ccc(NC(=O)Nc4ccc(CN5CCN(C)CC5)c(C(F)(F)F)c4)c(F)c3)c12 [Ie-28, 1-(2-fluoro-4-((3-methyl-1H-pyrrolo[2,3-b]pyridin-4-yl)oxy)phenyl)-3-(4-((4-methylpiperazin-1-yl)methyl)-3-(trifluoromethyl)phenyl)urea]
